# Experimental data published in patent US8076485B2, “Methylphenidate derivatives and uses of them” (priority 2005, dated 2011).
# Legend:
# IL-13 = IL-13 release by PBL (ELISA); format: cell-based, human; details: for IL-13 release induced by PHA: Example 2, GR467 PBL, 15 μg/ml Cpd II, 15 μg/ml MP, 10 μM Dex, PHA 2 μg/ml, 96 hours, FIG. 3
# Procedure: (§1) After this incubation, PHA was added to give a final concentration of 2 μg/ml, and the cells were incubated for an additional 96 hours at 37° C., 5% CO2. All cultures were performed in triplicate. Cells were then removed by centrifugation at 1000 rpm for 10 minutes, and the culture medium collected.
# (§2) Release of IL-13 and interferon gamma (IFNγ) into the culture medium was measured by ELISA. To perform the ELISA, matched pairs of antibodies against human IL-13 and IFNγ were purchased from Pierce Biotechnology and Biosource, respectively. ELISA strip well plates were coated with 10 μg/ml of antibody (in phosphate-buffered saline (PBS)) to IL-13 and 4 μg/ml of antibody to IFNγ (in PBS) overnight at room temperature. The plates were then blocked using a 4% BSA solution in PBS for one hour, followed by the addition of 50 μl of experimental culture medium per well in duplicate. The plates were incubated at room temperature for one hour and then washed using 50 mM Tris pH 8.0 with 0.1% Tween 20. Then, solutions of 400 ng/ml biotinylated second antibody to IL-13 and 500 ng/ml biotinylated second antibody to IFNγ were made in blocking buffer, and 100 μl were added per well. The plates were incubated for 1 hour and washed again. A 1:8000 dilution of Strepavidin HRP (Pierce Biotechnology) conjugate was made in blocking buffer, and 100 μl were added to the wells and incubation continued for 30 minutes. A final wash step was performed, after which 100 μl Pierce Biotechnology TMB substrate were added to each well. Color was developed for 30 minutes and stopped by adding 100 μl 0.18 NH2SO4. OD was determined using microplate reader with a 450 nm filter.
# After this incubation, PHA was added to give a final concentration of 5 μg/ml, and the cells were incubated for an additional 72 hours at 37° C., 5% CO2. All cultures were performed in triplicate. Cells were then removed by centrifugation at 1000 rpm for 10 minutes.
# The supernatants were collected, and the concentrations of IL-13 and tumor necrosis factor alpha (TNFα) in the supernatants were measured by ELISA. The IL-13 ELISA was performed as described in Example 2.
# [1] = test system: peripheral blood lymphocytes (PBL); assay: PBL proliferation assay (Promega cell titer, OD 530 nm); format: cell-based, human; details: for proliferation of PBL stimulated with PHA (OD at 530 nm): Example 1, donor GR283; for proliferation of PBL, both unstimulated and stimulated with PHA (OD at 530 nm): Dex 10 μM
# Procedure: Whole blood was drawn from GR283, a human volunteer with known allergies, into a glass vacutainer tube containing no anticoagulant. This blood was allowed to clot, and the serum was removed by centrifugation and then heat inactivated by placing it in a water bath at 56° C. for 30 minutes. Whole blood from GR283 was also drawn into a glass vacutainer tube containing heparin and used for peripheral blood lymphocytes (PBL) isolation as follows. Whole blood was layered over room temperature Histopaque 1077 solution and centrifuged at 2000 rpm for 15 minutes at room temperature. Cells at the plasma-Histopaque interface were then removed and washed with culture medium (IMDM medium with 10% heat-inactivated GR283 serum plus 1% penicillin/streptomycin) at 37° C.
# Then, GR283's PBL in culture medium were added to the wells to give a final concentration of 150,000 cells per well, and the plates were incubated at 37° C., 5% CO2 for 24 hours. After this incubation, phytohemagglutinin (PHA) in culture medium was added to give final concentrations of 2 μg/ml, 5 μg/ml or 20 μg/ml, final total volume of 200 μl/well, and the cells were incubated for an additional 72 hours at 37° C., 5% CO2. All cultures were performed in triplicate.
# Cell proliferation was assayed by adding 20 μl of Promega cell titer solution to each well and incubating the plate for an additional 4 hours. Promega cell titer solution is a solution containing a tetrazolium dye that is reduced by living cells to a formazan dye, and this reduction is proportional to the number of living cells present in the well. After the 4-hour incubation, the optical density (OD) at 530 nm of each well was measured. The OD at 530 nm for blank wells containing no cells was subtracted from the OD of the experimental wells.
# Then, GR467's PBL in culture medium were added to the wells to give a final concentration of 150,000 cells per well, and the plates were incubated at 37° C., 5% CO2 for 24 hours. After this incubation, PHA was added to give a final concentration of 2 μg/ml, final total volume of 200 μl/well, and the cells were incubated for an additional 72 hours at 37° C., 5% CO2. All cultures were performed in triplicate.
# Then, GR191's PBL in culture medium were added to the wells to give a final concentration of 150,000 cells per well, and the plates were incubated at 37° C., 5% CO2 for 24 hours. After this incubation, PHA was added to give final concentrations of 2 μg/ml and 5 μg/ml, final total volume of 200 μl/well, and the cells were incubated for an additional 72 hours at 37° C., 5% CO2. All cultures were performed in triplicate.
# IFNγ = IFNγ release by PBL (ELISA); format: cell-based, human; details: Example 2, GR467 PBL, 15 μg/ml Cpd II, 15 μg/ml MP, 10 μM Dex, FIG. 4; for IFNγ release, cells stimulated with PHA: PHA 2 μg/ml, 96 hours
# Procedure: as §1, §2
# [2] = test system: human umbilical vein endothelial cells (HUVECs); assay: HUVEC tube formation assay; format: cell-based; details: 18 hours, 5% FCS, 30 μg Cpd II or MP in 1 ml, LY 294002 50 μM
# Procedure: Passage 4 (i.e., […]) human umbilical vein endothelial cells (HUVECs), human source lot number 9713 (obtained from ATCC) in 1 ml of endothelial growth medium-2 (EGM-2) (obtained from Cambrex) were mixed with 30 μg of the compound of formula II (Cpd II) in endothelial basal medium-2 (EBM-2) (Cambrex) or 30 μg methylphenidate (MP) in EBM-2. Water (vehicle for the two test compounds) was used as a control, and the PI3 kinase inhibitor, LY 294002 (Sigma), at 50 μM, was included as a positive control. Then, the cells were seeded at 10,000 cells/well into the wells of a plate contained in a tube formation assay kit obtained from BD Biosciences, Rockville, Md. The wells of the plate contained an extracellular matrix protein gel. Fetal calf serum (FCS) (ATCC) was added to a final concentration of 5% to initiate tube formation. Then, the plates were incubated for 18 hours at 37° C. and 5% CO2. Following the incubation, the plates were photographed with a digital camera attached to an inverted microscope (Olympus IMT-2 set at a phase contrast (PC) of 10).
# When endothelial cells are cultured on extracellular matrix protein gels in the presence of angiogenic signals, they arrange themselves into structures loosely resembling capillary blood vessels. […]
# [3] = Cpd II and MP 5, 15, 50 μg/ml, Dex 10 μg/ml, PHA 2, 5, 20 μg/ml, FIGS. 1A-C
# [4] = Example 2, donor GR467, Cpd II 5, 15, 25 μg/ml, MP 15 μg/ml, PHA 2 μg/ml, FIG. 2
# [5] = Example 3, donor GR191, Cpd II 5, 15, 25, 50 μg/ml, MP 50 μg/ml, PHA 2 and 5 μg/ml, FIGS. 5A-B
SMILES,IL-13 release induced by PHA (IL-13),IL-13 release induced by PHA (IL-13; listed as Methylphenidate),"proliferation of PBL stimulated with PHA (OD at 530 nm) [1, 3]",proliferation of PBL stimulated with PHA (OD at 530 nm) ([1]; highest MP dose (50 μg/ml) and lowest PHA dose (2 μg/ml)),"proliferation of PBL, both unstimulated and stimulated with PHA (OD at 530 nm) [1, 4]","proliferation of PBL, both unstimulated and stimulated with PHA (OD at 530 nm) [1, 5]","IFNγ release, unstimulated cells (IFNγ)","IFNγ release, cells stimulated with PHA (IFNγ)","IFNγ release, cells stimulated with PHA (IFNγ; listed as Methylphenidate)",tube formation (branching and cellular interaction of endothelial cells) [2],"release of IL-13 from PHA-stimulated PBL (IL-13; Example 3, GR191 PBL, Cpd II 15 and 50 μg/ml, Dex 10 μM, PHA 5 μg/ml, 72 hours, FIG. 6)"
COC(=O)C(c1ccccc1)C1CCCCN1 (stereo not drawn) [methylphenidate],increased the release of IL-13,did not inhibit the release of IL-13,did not significantly reduce the proliferation,showed a significant effect,did not,did not,had some effect,increased the release of IFNγ,did not significantly suppress the release of IFNγ,no observable effect,–
COC(=O)C(c1ccc(-c2ccccc2)cc1)C1CCCCN1 (stereo not drawn) [Cpd II],significantly inhibited IL-13 release,–,significantly inhibited the proliferation of PBL stimulated with PHA in a dose-dependent manner,–,significantly inhibited the proliferation of PBL,significantly inhibited the proliferation of PBL,significantly inhibited IFNγ release,significantly inhibited IFNγ release,–,reduced the amount of branching and cellular interaction,significantly inhibited the release of IL-13
